From patent US20220202756A1, “GENETIC VARIANTS ASSOCIATED WITH RESPONSE TO TREATMENT OF NEUROLOGICAL DISORDERS” (VISTAGEN THERAPEUTICS, INC., priority 2019, published 2022)

Key:
LAT1 transporter = target: T1, LAT1 transporter (Homo sapiens, UniProt Q01650); experiment: AV-101 uptake in HEK-293 cells overexpressing LAT1; type: cell-based
T1 construct: expressed in transfected cells; host or cells: HEK-293
Text: The L-Type Amino Acid Transporter 1 (LAT1, SLC7A5) is part of the SLC7 family and forms a heterodimer with CD98 via a disulphide bond (Mastroberardino, L. et al. Amino-acid transport by heterodimers of 4F2hc/CD98 and members of a permease family. Nature 395, 288-291, doi: 10.1038/26246 (1998)). CD98 (4F2hc, SLC3A2) is a type II glycoprotein that functions as a chaperone for LAT1, stabilizing and facilitating its translocation to the plasma membrane. LAT1 is the functional unit of the complex (Napolitano, L. et al. LAT1 is the transport competent unit of the LAT1/CD98 heterodimeric amino acid transporter. The international journal of biochemistry & cell biology, doi: 10.1016/j.biocel.2015.08.004 (2015)) and substrates include a range of large neutral amino acids such as tyrosine, leucine, isoleucine, valine and phenylalanine as well as pharmaceutical drugs including L-DOPA and gabapentin. (Dickens, D. et al. Transport of gabapentin by LAT1 (SLC7A5). Biochem Pharmacol 85, 1672-1683, doi: 10.1016/j.bcp.2013.03.022 (2013); Uchino, H. et al. Transport of amino acid-related compounds mediated by L-type amino acid transporter 1 (LAT1): insights into the mechanisms of substrate recognition. Molecular pharmacology 61, 729-737 (2002)). The SLC7A5 locus with rsid rs28582913 has a single nucleotide polymorphism, wherein the minor allele, T instead of C, at position 87843494 on chromosome 16, is present in approximately 18-56% of the population depending on ethnicity (https://www.ncbi.nlm.nih.gov/snp/rs28582913#frequency_tab), and results in a 1.94 fold increase in the kynurenine metabolite. […] Additionally, physiological amino acids reduce LAT1 mediated transport of AV-101.

[1] = test system: Human brain endothelial cells; experiment: AV-101 uptake in human brain endothelial cells; type: cell-based
Text: The L-Type Amino Acid Transporter 1 (LAT1, SLC7A5) is part of the SLC7 family and forms a heterodimer with CD98 via a disulphide bond (Mastroberardino, L. et al. Amino-acid transport by heterodimers of 4F2hc/CD98 and members of a permease family. Nature 395, 288-291, doi: 10.1038/26246 (1998)). CD98 (4F2hc, SLC3A2) is a type II glycoprotein that functions as a chaperone for LAT1, stabilizing and facilitating its translocation to the plasma membrane. LAT1 is the functional unit of the complex (Napolitano, L. et al. LAT1 is the transport competent unit of the LAT1/CD98 heterodimeric amino acid transporter. The international journal of biochemistry & cell biology, doi: 10.1016/j.biocel.2015.08.004 (2015)) and substrates include a range of large neutral amino acids such as tyrosine, leucine, isoleucine, valine and phenylalanine as well as pharmaceutical drugs including L-DOPA and gabapentin. (Dickens, D. et al. Transport of gabapentin by LAT1 (SLC7A5). Biochem Pharmacol 85, 1672-1683, doi: 10.1016/j.bcp.2013.03.022 (2013); Uchino, H. et al. Transport of amino acid-related compounds mediated by L-type amino acid transporter 1 (LAT1): insights into the mechanisms of substrate recognition. Molecular pharmacology 61, 729-737 (2002)). […]

[2] = test system: depression, major depressive disorder; experiment: Treatment of depression / MDD in genotyped subjects; type: in vivo, human
Text: In subjects with the BDNF variant, the A allele of the SNP rs6265 a higher dose of the L-4-CI-KYN results in the mood-enhancing or anti-depressive response. Subjects affirmatively report feelings of well-being. This is consistent with reports that the glutamatergic system contributes to the pathophysiology of depression and that stress can induce changes in NMDA receptors. See, for example, Calabrese, et al., PloS one vol. 7,5 (2012): e37916. Twenty-five subjects, both male and female, ages 18 to 65, with a diagnosis of MDD are treated with either L-4-CI-KYN (1,080 or 1,440 mg/day given orally) for 2 weeks, similar in design to similar studies. See e.g., Ibrahim et al. J Clin Psychopharmacol. 2012 August; 32(4): 551-557; Zarate et al. Biol Psychiatry. 2013 Aug. 15; 74(4):257-64; Zarate et al. Arch Gen Psychiatry. 2006 August; 63(8):856-64; Zarate et al. 2005 Biological psychiatry 57 (4), 430-432. The subjects are pre-screened to be positive for at least one of the following variant SNPs, the T allele of SNP rs61825638, the T allele of SNP rs28582913, or the C allele of rs2121337, or positive for the G allele of rs6265. In addition, a control group of twenty-five subjects is pre-screened as lacking any of: the T allele of SNP rs61825638, the T allele of SNP rs28582913, or the C allele of rs2121337, or lacking the G allele of SNP rs6265. […] Montgomery et al. 1979, Brit. J. Psych., 134:382-389. […]

[3] = cited from earlier work; for crossing of the blood-brain barrier / access to the CNS: after administration

T1 sequence (Q01650 whole entry): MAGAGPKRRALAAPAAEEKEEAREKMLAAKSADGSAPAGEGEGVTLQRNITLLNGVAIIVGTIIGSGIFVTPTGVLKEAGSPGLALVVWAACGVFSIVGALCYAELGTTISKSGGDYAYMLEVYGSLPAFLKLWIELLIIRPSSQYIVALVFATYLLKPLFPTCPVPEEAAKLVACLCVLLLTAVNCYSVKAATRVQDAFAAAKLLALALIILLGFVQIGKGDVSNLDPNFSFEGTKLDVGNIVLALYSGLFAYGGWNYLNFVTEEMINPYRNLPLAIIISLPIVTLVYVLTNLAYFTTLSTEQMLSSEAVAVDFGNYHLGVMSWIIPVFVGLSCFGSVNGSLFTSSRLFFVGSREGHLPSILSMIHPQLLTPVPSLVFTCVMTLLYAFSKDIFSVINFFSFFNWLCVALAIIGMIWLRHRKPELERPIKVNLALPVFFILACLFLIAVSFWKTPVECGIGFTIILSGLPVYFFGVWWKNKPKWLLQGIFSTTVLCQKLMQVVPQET
T1 sequence (P08195 102-630 partner): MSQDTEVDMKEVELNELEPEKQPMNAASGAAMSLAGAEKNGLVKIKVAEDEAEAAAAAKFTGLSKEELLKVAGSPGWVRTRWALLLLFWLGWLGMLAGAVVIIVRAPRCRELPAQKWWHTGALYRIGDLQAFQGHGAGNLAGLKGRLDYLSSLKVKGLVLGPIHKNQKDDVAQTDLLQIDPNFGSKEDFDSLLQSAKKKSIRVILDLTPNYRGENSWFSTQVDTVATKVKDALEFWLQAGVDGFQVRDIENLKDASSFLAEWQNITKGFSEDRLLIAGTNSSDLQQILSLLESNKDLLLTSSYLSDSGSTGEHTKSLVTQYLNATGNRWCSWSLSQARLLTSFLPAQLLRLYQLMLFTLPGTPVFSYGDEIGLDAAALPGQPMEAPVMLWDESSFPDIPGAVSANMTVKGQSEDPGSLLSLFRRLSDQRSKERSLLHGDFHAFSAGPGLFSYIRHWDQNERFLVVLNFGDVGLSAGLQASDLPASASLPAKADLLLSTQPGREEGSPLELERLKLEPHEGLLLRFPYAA

substrate status for the LAT1 transporter (LAT1 transporter)	AV-101 uptake (LAT1 transporter; HEK-293 cells overexpressing LAT1)	AV-101 uptake [1]	effect on AV-101 uptake (LAT1 transporter; LAT1 inhibitor added, HEK-293 cells overexpressing LAT1)	Compound	HDRS and/or MADRS total scores ([2]; MDD subjects, 1,080 or 1,440 mg/day orally for 2 weeks)	mood enhancing or anti-depressive activity ([2]; subjects with KMO rs61825638 T, SLC7A5 rs28582913 T or ACMSD rs2121337 C variant)	crossing of the blood-brain barrier / access to the CNS [3]	conversion to 7-chlorokynurenic acid ([3]; within activated astrocytes)	effect on AV-101 uptake ([1]; in the presence of JPH203)
substrate for the LAT1 transporter	substantial increase	significant uptake	–	Nc1cc(Cl)ccc1C(=O)CC(N)C(=O)O [L-4-CI-KYN, L-4-chlorokynurenine]	significant decrease	observed for a higher number of subjects, or for the same number of patients but at a lower dose	readily gains access to the central nervous system	efficiently converted	–
–	–	–	substantially reduced	Nc1cc(COc2c(Cl)cc(C[C@H](N)C(=O)O)cc2Cl)c2oc(-c3ccccc3)nc2c1 [JPH203, reference compound]	–	–	–	–	significantly diminished
–	–	–	–	O=C(O)c1cc(O)c2ccc(Cl)cc2n1 [7-chlorokynurenic acid, reference compound]	–	–	does not cross the blood-brain barrier	–	–
